From PubChem BioAssay (NCI)
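GI50 is the concentration that inhibits growth by half. TGI denotes the concentration required for complete inhibition of growth.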

Key:
Experiment in all cases: DTP human tumour cell line panel, 384-well format
[1] = test system: SNB-19 CNS
[2] = test system: HOP-62 NSCLC
[3] = test system: TK-10 renal
[4] = test system: RXF 393 renal
[5] = test system: HL-60(TB) leukemia
[6] = test system: UACC-257 melanoma
[7] = test system: DU-145 prostate
[8] = test system: IGROV1 ovarian
[9] = test system: SR leukemia
[10] = test system: HCT-15 colon
[11] = test system: UACC-62 melanoma
[12] = test system: MDA-MB-468 breast
[13] = test system: COLO 205 colon
[14] = test system: NCI/ADR-RES ovarian
[15] = test system: HT29 colon
[16] = test system: HS 578T breast
[17] = test system: KM12 colon
[18] = test system: SK-OV-3 ovarian
[19] = test system: U251 glioblastoma
[20] = test system: M14 melanoma
[21] = test system: NCI-H460 NSCLC
[22] = test system: LOX IMVI melanoma
[23] = test system: SN12C renal
[24] = test system: OVCAR-3 ovarian
[25] = test system: SF-268 CNS
[26] = test system: MALME-3M melanoma
[27] = test system: K-562 leukemia
[28] = test system: HCT-116 colon
[29] = test system: MDA-MB-231 breast
[30] = test system: NCI-H322M lung
[31] = test system: A498 renal
[32] = test system: BT-549 breast
[33] = test system: OVCAR-8 ovarian
[34] = test system: SK-MEL-28 melanoma
[35] = test system: SF-539 CNS
[36] = test system: CAKI-1 renal
[37] = test system: 786-0 renal
[38] = test system: SK-MEL-5 melanoma
[39] = test system: A549 NSCLC
[40] = test system: NCI-H226 lung
[41] = test system: UO-31 renal
[42] = test system: MCF7 breast
[43] = test system: ACHN renal
[44] = test system: SNB-75 CNS
[45] = test system: HCC-2998 colon
[46] = test system: NCI-H522 lung
[47] = test system: MDA-MB-435 melanoma
[48] = test system: HOP-92 NSCLC
[49] = test system: CCRF-CEM leukemia
[50] = test system: OVCAR-4 ovarian
[51] = test system: SW-620 colon
[52] = test system: T-47D breast
[53] = test system: MOLT-4 leukemia
[54] = test system: NCI-H23 lung
[55] = test system: SF-295 CNS
[56] = test system: EKVX NSCLC
[57] = test system: RPMI-8226 leukemia
[58] = test system: PC-3 prostate

SMILES: CC(C)c1c(-c2ccccc2)nc2c(C#N)c[nH]n2c1=O
- GI50 [1]: 43.6 µM
- TGI [1]: > 100 µM
- GI50 [2]: 24.9 µM
- TGI [2]: 65.9 µM
- GI50 [3]: 34.1 µM
- TGI [3]: > 100 µM
- GI50 [4]: 28.6 µM
- TGI [4]: > 100 µM
- GI50 [5]: 12.2 µM
- TGI [5]: 25.7 µM
- GI50 [6]: 22.3 µM
- TGI [6]: 46.3 µM
- GI50 [7]: 31.9 µM
- TGI [7]: > 100 µM
- GI50 [8]: 44 µM
- TGI [8]: > 100 µM
- GI50 [9]: 25.2 µM
- TGI [9]: 41.2 µM
- GI50 [10]: 38.8 µM
- TGI [10]: > 100 µM
- GI50 [11]: 24.2 µM
- TGI [11]: 66.7 µM
- GI50 [12]: 19.6 µM
- TGI [12]: 37.2 µM
- GI50 [13]: 24.1 µM
- TGI [13]: 47.9 µM
- GI50 [14]: 27.5 µM
- TGI [14]: 69.5 µM
- GI50 [15]: 38 µM
- TGI [15]: > 100 µM
- GI50 [16]: 37.7 µM
- TGI [16]: > 100 µM
- GI50 [17]: 30.8 µM
- TGI [17]: > 100 µM
- GI50 [18]: 36.8 µM
- TGI [18]: > 100 µM
- GI50 [19]: 34.4 µM
- TGI [19]: > 100 µM
- GI50 [20]: 30.7 µM
- TGI [20]: 96.8 µM
- GI50 [21]: 27.4 µM
- TGI [21]: 65.3 µM
- GI50 [22]: 21.1 µM
- TGI [22]: 41.9 µM
- GI50 [23]: 20.3 µM
- TGI [23]: 41.9 µM
- GI50 [24]: 18 µM
- TGI [24]: 36.3 µM
- GI50 [25]: 36.6 µM
- TGI [25]: > 100 µM
- GI50 [26]: 17.6 µM
- TGI [26]: 36.1 µM
- GI50 [27]: 37.7 µM
- TGI [27]: > 100 µM
- GI50 [28]: 34.5 µM
- TGI [28]: > 100 µM
- GI50 [29]: 24.2 µM
- TGI [29]: 53.5 µM
- GI50 [30]: 33.6 µM
- TGI [30]: > 100 µM
- GI50 [31]: 40.2 µM
- TGI [31]: > 100 µM
- GI50 [32]: 39.9 µM
- TGI [32]: > 100 µM
- GI50 [33]: 37.6 µM
- TGI [33]: > 100 µM
- GI50 [34]: 28.5 µM
- TGI [34]: 96.8 µM
- GI50 [35]: 34.2 µM
- TGI [35]: > 100 µM
- GI50 [36]: 44.8 µM
- TGI [36]: > 100 µM
- GI50 [37]: 33.6 µM
- TGI [37]: > 100 µM
- GI50 [38]: 19.4 µM
- TGI [38]: 35.6 µM
- GI50 [39]: 33.1 µM
- TGI [39]: > 100 µM
- GI50 [40]: 27 µM
- TGI [40]: 70.9 µM
- GI50 [41]: 38.9 µM
- TGI [41]: > 100 µM
- GI50 [42]: 20.9 µM
- TGI [42]: 54.7 µM
- GI50 [43]: 38.3 µM
- TGI [43]: > 100 µM
- GI50 [44]: 35.2 µM
- TGI [44]: > 100 µM
- GI50 [45]: 44.9 µM
- TGI [45]: > 100 µM
- GI50 [46]: 19 µM
- TGI [46]: 37.6 µM
- GI50 [47]: 39.9 µM
- TGI [47]: > 100 µM
- GI50 [48]: 30.5 µM
- TGI [48]: 89 µM
- GI50 [49]: 20.8 µM
- TGI [49]: 42.4 µM
- GI50 [50]: 25.9 µM
- TGI [50]: 74.2 µM
- GI50 [51]: 38.8 µM
- TGI [51]: > 100 µM
- GI50 [52]: 21 µM
- TGI [52]: 42.9 µM
- GI50 [53]: 16.2 µM
- TGI [53]: 29.9 µM
- GI50 [54]: 20.3 µM
- TGI [54]: 44.5 µM
- GI50 [55]: 22.9 µM
- TGI [55]: 62.4 µM
- GI50 [56]: 22.4 µM
- TGI [56]: 46.4 µM
- GI50 [57]: 21.1 µM
- TGI [57]: 37.9 µM
- GI50 [58]: 37.2 µM
- TGI [58]: > 100 µM
